Test results taken from publication PMC10564737, “Structure-based design of a phosphotyrosine-masked covalent ligand targeting the E3 ligase SOCS2” (Nature Communications, 2023).
Where two headings read alike, the source gives them in different places.

Tests used:
[1] = system: reduced glutathione (GSH); assay: Glutathione (GSH) reactivity assay; type: physicochemical; settings: 5 mM reduced glutathione (GSH) in potassium phosphate buffer; 5 mM GSH, 37 °C, pH 7.4
Description: MN551/MN714 (1/10 μM) were incubated at 37 °C with 5 mM GSH in 100 mM potassium phosphate buffer, pH 7.4 (0.1% DMSO). […] Samples were then analyzed with an LC (Shimadzu LC-40)/MS/MS (Triple Quad 6500+). From the mass spectrum, peak area ratios (peak area analyte/peak area of a stable internal standard) were calculated and the percent compound remaining was determined relative to time zero.

SOCS2 = target: T1, SOCS2 (Homo sapiens, UniProt O14508); assay: SOCS2 pulldown with biotinylated GHR_pY595 peptide from K562 cell lysates preincubated with compound; type: biochemical
T1 construct: endogenous SOCS2 from K562 lysates; endogenous in cells; host or cells: K562
T1 sequence (O14508 1-198): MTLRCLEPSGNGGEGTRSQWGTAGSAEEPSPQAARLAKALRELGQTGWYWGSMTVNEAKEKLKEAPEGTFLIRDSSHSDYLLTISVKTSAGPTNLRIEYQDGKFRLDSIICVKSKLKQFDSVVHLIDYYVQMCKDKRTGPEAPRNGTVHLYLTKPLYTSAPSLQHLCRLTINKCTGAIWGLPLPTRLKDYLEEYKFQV
Description: Pulldown of cellular SOCS2 was abrogated when K562 cells were pre-treated for 6 h with MN714 prior to cell lysis, further evidencing the inhibitor cell permeability and specific target engagement (Fig. 6c).
K562 cells were treated with either DMSO or 10 µM MN714 for 6 h before being lysed. For experiments with MN551, DMSO-treated lysate was used. DMSO-treated K562 lysate (1 mg/ml) was pre-cleared using control agarose beads (Pierce Control Agarose Resin, 26150) which were washed thrice using 50 mM Tris pH 7.4, 150 mM NaCl buffer. […] Unbound peptide was washed off through 3× cycles of buffer wash and spin. Beads were resuspended to a total volume of 100 µl per IP sample. 100 µl beads with immobilized peptides was added to the MN551 lysate tubes. Samples were incubated for 40 min at room temperature. Samples were spun and unbound supernatant was removed. Beads were washed 3× with 0.05% NP40, 50 mM Tris pH 7.4, 150 mM NaCl buffer before being resuspended in 35 µl 1× LDS. Samples were heated for 10 min at 95 °C after which the elute was transferred to a fresh tube. 20 µl of each sample was analyzed by Western Blot (4-12% Bis-Tris gel 180 V, 60 mins) before blotting for SOCS2 (ab109245, 1:1000 dilution) overnight at 4 °C. Uncropped blot images collected with ChemiDoc Touch imaging system (BioRad) operated by Image Lab (v2.4.0.03) and antibody validation provided in Source Data. […]

K562 cells = assay: cells; type: cell-based
Description: Supplementary Figure 10: GSH kinetic study of compound MN551 in GSH stability assay. A and B.
A plot of unmodified MN551 v/s time. The starting concentrations of MN551 were 1 and 10 µM in A and B respectively. C. Reactivity of MN551 measured against Afatinib and Ibrutinib
Supplementary Figure 11: Cell viability assay to assess cytotoxicity of MN714. (EC50 reported as mean±SEM, technical replicates=3).
(1 picture or pasted object on this page, not shown here)

In the case of O=C(CCl)Nc1cccc(CNC(=O)[C@H](Cc2ccc(OP(=O)(O)O)cc2)NC(=O)Cc2ccc(F)cc2)c1 [MN551], the half-life [1] is reported as > 1.17 h, the IC50 (SOCS2; K562 cell lysates, mean ± SEM, technical replicates = 2, read-out: IC50 of reduction of SOCS2 pulled down with biotinylated GHR pY595) is reported as 5.9 ± 2.6 µM and the IC50 (SOCS2; K562 lysates, version shown in the peer review file, read-out: apparent IC50 of blockade of SOCS2 pull-down) is reported as 9 µM.

CC(C)(C)C(=O)OCOP(=O)(OCOC(=O)C(C)(C)C)Oc1ccc(C[C@H](NC(=O)Cc2ccc(F)cc2)C(=O)NCc2cccc(NC(=O)CCl)c2)cc1 [MN714] was tested, and the EC50 (K562 cells; Homo sapiens, K562 24hrs, read-out: cell viability EC50) was 11.8 µM and the “concentration up to which no significant cytotoxicity was observed” value (K562 cells; K562 cells) was 3000 to 10000 nM.
